Results from the supplement of paper PMC4862054.

Assays:
Assay in all cases: normalised response (% of control), CellTiter-Glo; higher = more viable cells (100 = DMSO, 0 = benzethonium chloride kill control)
Conditions in all cases: incubation time: 72 h
CAL-85-1 = test system: CAL-85-1
Outline: (§1)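 Two readouts were taken after 72 h: CellTox Green fluorescence (485/520 nm) first, then CellTiter-Glo luminescence after 10 min at room temperature. Breast cancer cell lines had been seeded as 20 µl suspension into 384-well plates holding compound at 5 concentrations in 10-fold steps across a compound-specific 10,000-fold range. Each value is a normalised signal at a single concentration, with plates scaled to 0.1 % DMSO (100) and a positive kill control (0).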

MDA-MB-468 = test system: MDA-MB-468
Outline: as §1

DU-4475 = test system: DU-4475
Outline: as §1

BT-549 = test system: BT-549
Outline: as §1

CAL-51 = test system: CAL-51
Outline: as §1

MFM-223 = test system: MFM-223
Outline: as §1

MDA-MB-436 = test system: MDA-MB-436
Outline: as §1

HCC1937 = test system: HCC1937
Outline: as §1

CAL-120 = test system: CAL-120
Outline: as §1

CAL-148 = test system: CAL-148
Outline: as §1

HCC1143 = test system: HCC1143
Outline: as §1

Hs578T = test system: Hs578T
Outline: as §1

MCF-10A = test system: MCF-10A
Outline: as §1

SK-BR-3 = test system: SK-BR-3
Outline: as §1

MDA-MB-453 = test system: MDA-MB-453
Outline: as §1

HDQ-P1 = test system: HDQ-P1
Outline: as §1

MDA-MB-231 = test system: MDA-MB-231
Outline: as §1

BT-474 = test system: BT-474
Outline: as §1

HCC1599 = test system: HCC1599
Outline: as §1

Compound | normalised response (CAL-85-1) | normalised response (MDA-MB-468) | normalised response (DU-4475) | normalised response (BT-549) | normalised response (CAL-51) | normalised response (MFM-223) | normalised response (MDA-MB-436) | normalised response (HCC1937) | normalised response (CAL-120) | normalised response (CAL-148) | normalised response (HCC1143) | normalised response (Hs578T) | normalised response (MCF-10A) | normalised response (SK-BR-3) | normalised response (MDA-MB-453) | normalised response (HDQ-P1) | normalised response (MDA-MB-231) | normalised response (BT-474) | normalised response (HCC1599)
O=P1(N(CCCl)CCCl)NCCCO1 (stereo not drawn) [Cyclophosphamide] (40 nM) | 98.7% | 101% | 106% | 97.9% | 79.3% | 100% | 99.1% | 95.6% | 96.8% | 104% | 105% | 106% | 102% | 91% | 106% | 98.4% | 99.9% | 100% | 98.2%
COC(=O)c1ccc2c(c1)NC(=O)/C2=C(\Nc1ccc(N(C)C(=O)CN2CCN(C)CC2)cc1)c1ccccc1 [Nintedanib] (1 nM) | 99.1% | 110% | 101% | 97.6% | 121% | 99.1% | 101% | 97.7% | 104% | 110% | 97.1% | 95.9% | 103% | 101% | 120% | 102% | 98.7% | 98% | 103%
COc1cc(O)c2c(c1)/C=C/C[C@H](O)[C@H](O)C(=O)/C=C\C[C@H](C)OC2=O [(5Z)-7-Oxozeaenol] (1 nM) | 95.2% | 98% | 96.6% | 109% | 93.9% | 108% | 98% | 98.7% | 99.8% | 104% | 106% | 99.9% | 109% | 105% | 106% | 105% | 103% | 97.9% | 91.8%
COc1cc2c(NC3CCN(C(C)C)CC3)nc(N3CCC(F)(F)CC3)nc2cc1OCCCN1CCCC1 [UNC0642] (1 nM) | 93.2% | 95.9% | 97.5% | 97.9% | 103% | 91.2% | 89.2% | 94.5% | 94.2% | 87.2% | 95% | 99.3% | 102% | 93.1% | 105% | 92.7% | 96% | 92.3% | 88.9%
Nc1cc(C(F)(F)F)c(-c2cc(N3CCOCC3)nc(N3CCOCC3)n2)cn1 [Buparlisib] (10 nM) | 96.5% | 101% | 97.1% | 100% | 113% | 97.3% | 101% | 93.3% | 104% | 97% | 97.2% | 98.4% | 98.2% | 110% | 104% | 99% | 103% | 97.3% | 108%
CNC(=O)c1cccc(-c2ccc3c(N4CCOC[C@@H]4C)nc(N4CCOC[C@@H]4C)nc3n2)c1 [AZD2014] (10 nM) | 97.6% | 104% | 104% | 96.8% | 105% | 106% | 98.5% | 101% | 93.5% | 106% | 99.8% | 104% | 111% | 99% | 101% | 98.8% | 97.7% | 99.5% | 115%
CN(C)c1nc(N(C)C)nc(N(C)C)n1 [Altretamine] (10 nM) | 101% | 104% | 100% | 100% | 101% | 109% | 96.5% | 99.3% | 97.9% | 109% | 105% | 110% | 109% | 113% | 115% | 98.9% | 101% | 101% | 103%
Oc1ccc2c(c1)CC[C@H](c1ccccc1)[C@@H]2c1ccc(OCCN2CCCC2)cc1 [Lasofoxifene] (1 nM) | 96.6% | 105% | 105% | 93.2% | 106% | 107% | 101% | 101% | 95.1% | 112% | 100% | 103% | 104% | 110% | 112% | 96.3% | 104% | 102% | 97.3%
O=C(/C=C/c1cccc(S(=O)(=O)Nc2ccccc2)c1)NO [Belinostat] (10 nM) | 93.8% | 105% | 97.2% | 101% | 80.2% | 88.5% | 91% | 94.8% | 96.9% | 85.7% | 99.2% | 94.3% | 96% | 68.9% | 97.1% | 88.5% | 98.5% | 98.2% | 96.5%
CNC(=O)c1ccc(N2C(=S)N(c3ccc(C#N)c(C(F)(F)F)c3)C(=O)C2(C)C)cc1F [Enzalutamide] (10 nM) | 93.5% | 98.7% | 101% | 91.4% | 124% | 98.6% | 99.4% | 91.3% | 95.3% | 107% | 103% | 101% | 106% | 98% | 99% | 100% | 94.5% | 103% | 95.8%
COc1cc2c(NC3CCN(C(C)C)CC3)nc(N3CCC(F)(F)CC3)nc2cc1OCCCN1CCCC1 [UNC0642] (10 nM) | 96.6% | 89% | 94.6% | 97.7% | 86.3% | 88.4% | 101% | 98.2% | 95.2% | 88.6% | 95.3% | 107% | 102% | 108% | 92% | 97.4% | 95.3% | 97.7% | 96.5%
CNC(=O)c1cccc(-c2ccc3c(N4CCOC[C@@H]4C)nc(N4CCOC[C@@H]4C)nc3n2)c1 [AZD2014] (1 nM) | 95% | 103% | 99.4% | 102% | 125% | 106% | 89.7% | 101% | 98.4% | 111% | 104% | 101% | 114% | 115% | 105% | 98% | 108% | 97.5% | 92%
S=P(N1CC1)(N1CC1)N1CC1 [Thio-TEPA] (5 nM) | 99.2% | 91.2% | 98.6% | 94.9% | 64.7% | 102% | 78.2% | 93.8% | 95.4% | 90.4% | 96.2% | 106% | 101% | 105% | 108% | 93.4% | 102% | 93.2% | 104%
Cc1cc(Nc2cc(CN3CCOCC3)c3nc(C)c(Cc4ccc(Cl)cc4F)n3n2)n[nH]1 [Gandotinib] (10 nM) | 101% | 101% | 104% | 100% | 92% | 105% | 104% | 94.2% | 98.2% | 110% | 102% | 99.5% | 108% | – | 99.3% | 106% | 102% | 106% | 118%
CCc1c2c(nc3ccc(OC(=O)N4CCC(N5CCCCC5)CC4)cc13)-c1cc3c(c(=O)n1C2)COC(=O)[C@]3(O)CC [Irinotecan] (10 nM) | 100% | 105% | 106% | 90.8% | 114% | 98.7% | 92.7% | 94.8% | 94.2% | 93.7% | 99.7% | 97.7% | 105% | 109% | 107% | 98.4% | 97.7% | 100% | 97.5%
C=C1C[C@@H]2[C@H](CC[C@]3(C)C(=O)CC[C@@H]23)[C@@]2(C)C=CC(=O)C=C12 [Exemestane] (10 nM) | 108% | 109% | 106% | 98% | 70.2% | 108% | 104% | 103% | 98% | 109% | 99.7% | 99.7% | 116% | – | 116% | 98.9% | 106% | 21% | 99.1%
Cc1cc(Nc2cc(CN3CCOCC3)c3nc(C)c(Cc4ccc(Cl)cc4F)n3n2)n[nH]1 [Gandotinib] (1 nM) | 104% | 112% | 106% | 105% | 93.5% | 99.7% | 97.4% | 100% | 94.4% | 111% | 97.8% | 100% | 107% | 110% | 103% | 97.3% | 98.1% | 108% | 109%
Cc1ccc(NC(=O)c2ccc(CN3CCN(C)CC3)cc2)cc1Nc1nc(-c2cccnc2)cs1 [Masitinib] (10 nM) | 99.7% | 108% | 102% | 101% | 99.4% | 105% | 101% | 97.4% | 91.5% | 108% | 98.4% | 98.8% | 104% | – | 113% | 93.6% | 100% | 102% | 93.8%
O=C(Nc1ccncc1)C(=O)c1cn(Cc2ccc(Cl)cc2)c2ccccc12 [Indibulin] (10 nM) | 99.9% | 102% | 105% | 93.5% | 86.5% | 107% | 99.2% | 98.2% | 92.6% | 109% | 100% | 104% | 102% | – | 95% | 94.1% | 104% | 112% | 93.4%
COCC1(CO)C(=O)C2CCN1CC2 (stereo not drawn) [Prima-1 Met] (10 nM) | 103% | 102% | 109% | 93.7% | 124% | 103% | 101% | 99% | 92.4% | 102% | 103% | 103% | 107% | – | 111% | 95.1% | 103% | 103% | 92.7%
Cc1[nH]c2ccccc2c1CCNCc1ccc(/C=C/C(=O)NO)cc1 [Panobinostat] (1 nM) | 104% | 103% | 99.1% | 101% | 118% | 100% | 107% | 96.5% | 101% | 101% | 104% | 98.7% | 99.9% | – | 92.8% | 102% | 102% | 103% | 100%
